Results on 2 compounds are retold here after PMC6667281 (Biochemistry, 2019).

Assay [1] concerns the target T1, CymD (Salinispora arenicola, UniProt A8M6W6). The assay is described as follows: prenyl donor in coupled pyrophosphate-release assay with purified CymD. Type of assay: biochemical.
Assay [2] concerns the target T1, CymD. The assay is described as follows: ITC. The class given is binding.

T1 sequence (A8M6W6 2-373): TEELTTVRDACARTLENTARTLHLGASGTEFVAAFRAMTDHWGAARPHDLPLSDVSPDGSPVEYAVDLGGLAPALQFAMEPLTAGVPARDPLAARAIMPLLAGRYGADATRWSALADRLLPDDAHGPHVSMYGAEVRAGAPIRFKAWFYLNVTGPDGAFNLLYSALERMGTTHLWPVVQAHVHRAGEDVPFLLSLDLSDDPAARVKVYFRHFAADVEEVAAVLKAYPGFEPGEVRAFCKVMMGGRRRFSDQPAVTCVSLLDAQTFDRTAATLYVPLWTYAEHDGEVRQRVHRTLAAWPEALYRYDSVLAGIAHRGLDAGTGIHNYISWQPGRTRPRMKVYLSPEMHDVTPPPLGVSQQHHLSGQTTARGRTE

Take `CC(C)=CCOP(=O)(O)OP(=O)(O)O` [DMAPP]: the “prenyl donor in coupled pyrophosphate-release assay with purified CymD” value at CymD [1] is “Specific activities of CymD with DMAPP and various prenyl acceptor substrates”.
Compound `N[C@@H](Cc1c[nH]c2ccccc12)C(=O)O` [L-Trp] displayed a Kd at CymD [2] of 4.4 ± 0.4 µM.
